# Laboratory results reported in patent US20170050957A1, “4-AMINO-6-(HETEROCYCLIC)PICOLINATES AND 6-AMINO-2-(HETEROCYCLIC)PYRIMIDINE-4-CARBOXYLATES AND THEIR USE AS HERBICIDES” (Dow AgroSciences LLC, priority 2013, published 2017).
# Read-outs that look alike come from different tables or passages of the source.
# Assays:
# [1] = system: Key Broadleaf Weed and Crop Species; experiment: Post-emergent Test II herbicidal activity (Table 15); type: in vivo; conditions: post-emergence, 336 h, 14 d; for pest or weed control at 35 g/ha: 35 g ai/ha; for pest or weed control at 70 g/ha: 70 g ai/ha; for pest or weed control at 140 g/ha: 140 g ai/ha
# Method: (§1) Post-emergent Test II: Seeds or nutlets of the desired test plant species were planted in Sun Gro Metro-Mix® 360 planting mixture, which typically has a pH of 6.0 to 6.8 and an organic matter content of about 30 percent, in plastic pots with a surface area of 64 square centimeters. When required to ensure good germination and healthy plants, a fungicide treatment and/or other chemical or physical treatment was applied. The plants were grown for 7-21 d in a greenhouse with an approximate 15 h photoperiod which was maintained at about 23-29° C. during the day and 22-28° C. during the night. Nutrients and water were added on a regular basis and supplemental lighting was provided with overhead metal halide 1000-Watt lamps as necessary. The plants were employed for testing when they reached the first or second true leaf stage.
# (§2) A weighed amount, determined by the highest rate to be tested, of each test compound was placed in a 25 mL glass vial and was dissolved in 4 mL of a 97:3 v/v mixture of acetone and DMSO to obtain concentrated stock solutions. […] The concentrated stock solutions obtained were diluted with 20 mL of an aqueous mixture containing acetone, water, isopropyl alcohol, DMSO, Atplus 411F crop oil concentrate, and Triton® X-155 surfactant in a 48.5:39:10:1.5:1.0:0.02 v/v ratio to obtain spray solutions containing the highest application rates. Additional application rates were obtained by serial dilution of 12 mL of the high rate solution into a solution containing 2 mL of 97:3 v/v mixture of acetone and DMSO and 10 mL of an aqueous mixture containing acetone, water, isopropyl alcohol, DMSO, Atplus 411F crop oil concentrate, and Triton X-155 surfactant in a 48.5:39:10:1.5:1.0:0.02 v/v ratio to obtain 1/2×, 1/4×, 1/8× and 1/16× rates of the high rate. Compound requirements are based upon a 12 mL application volume at a rate of 187 liters per hectare (L/ha). Formulated compounds were applied to the plant material with an overhead Mandel track sprayer equipped with 8002E nozzles calibrated to deliver 187 L/ha over an application area of 0.503 square meters at a spray height of 18 inches (43 cm) above the average plant canopy height. Control plants were sprayed in the same manner with the solvent blank.
# (§3) The treated plants and control plants were placed in a greenhouse as described above and watered by subirrigation to prevent wash-off of the test compounds. After 14 d, the condition of the test plants as compared with that of the untreated plants was determined visually and scored on a scale of 0 to 100 percent where 0 corresponds to no injury and 100 corresponds to complete kill.
# [2] = system: Key Grass and Sedge Weeds as well as Grass Crops; experiment: Post-emergent Test II herbicidal activity (Table 16); type: in vivo; conditions: post-emergence, 336 h; for pest or weed control at 35 g/ha: 35 g ai/ha; for pest or weed control at 35 g/ha / pest or weed control at 70 g/ha: 14 d; for pest or weed control at 70 g/ha: 70 g ai/ha; for pest or weed control at 140 g/ha: 140 g ai/ha, 14 days after application
# Method: as §1, §2, §3
# [3] = Abutilon theophrasti, velvetleaf (Abutilon theophrasti), read-out: Visual Growth Reduction (%) 14 Days After Application, ABUTH
# [4] = Amaranthus retroflexus, redroot pigweed (Amaranthus retroflexus), read-out: Visual Growth Reduction (%) 14 Days After Application, AMARE
# [5] = Brassica napus, oilseed rape, canola (Brassica napus), read-out: Visual Growth Reduction (%) 14 Days After Application, BRSNN
# [6] = Chenopodium album, lambsquarters (Chenopodium album), read-out: Visual Growth Reduction (%) 14 Days After Application, CHEAL
# [7] = Euphorbia heterophylla, wild poinsettia (Euphorbia heterophylla), read-out: Visual Growth Reduction (%) 14 Days After Application, EPHHL
# [8] = Helianthus annuus, sunflower (Helianthus annuus), read-out: Visual Growth Reduction (%) 14 Days After Application, HELAN
# [9] = Cyperus esculentus, yellow nutsedge (Cyperus esculentus), read-out: Visual Growth Reduction (%) 14 Days After Application, CYPES
# [10] = Echinochloa crus-galli, barnyardgrass (Echinochloa crus-galli), read-out: Visual Growth Reduction (%) 14 Days After Application, ECHCG
# [11] = Oryza sativa, rice (Oryza sativa), read-out: Visual Growth Reduction (%) 14 Days After Application, ORYSA
# [12] = Setaria faberi, giant foxtail (Setaria faberi), read-out: Visual Growth Reduction (%) 14 Days After Application, SETFA
# [13] = Triticum aestivum, wheat, spring (Triticum aestivum), read-out: Visual Growth Reduction (%) 14 Days After Application, TRZAS
# [14] = Zea mays, maize, corn (Zea mays), read-out: Visual Growth Reduction (%) 14 Days After Application, ZEAMX
SMILES,"pest or weed control at 35 g/ha [1, 3]","pest or weed control at 70 g/ha [1, 3]","pest or weed control at 35 g/ha [1, 4]","pest or weed control at 70 g/ha [1, 4]","pest or weed control at 35 g/ha [1, 5]","pest or weed control at 70 g/ha [1, 5]","pest or weed control at 35 g/ha [1, 6]","pest or weed control at 70 g/ha [1, 6]","pest or weed control at 35 g/ha [1, 7]","pest or weed control at 70 g/ha [1, 7]","pest or weed control at 35 g/ha [1, 8]","pest or weed control at 70 g/ha [1, 8]",melting point,"pest or weed control at 140 g/ha [1, 3]","pest or weed control at 140 g/ha [1, 5]","pest or weed control at 140 g/ha [1, 6]","pest or weed control at 140 g/ha [1, 7]","pest or weed control at 140 g/ha [1, 8]",also measured
C=Cc1c(N)nc(-c2ccc3cc[nH]c3c2F)nc1C(=O)O [Compound 1.39],0 to 29%,0 to 29%,95 to 100%,95 to 100%,75 to 84%,85 to 94%,95 to 100%,75 to 84%,85 to 94%,75 to 84%,0 to 29%,0 to 29%,209 to 211 °C,–,–,–,–,–,"pest or weed control at 35 g/ha [2, 9]: 0 to 29%; pest or weed control at 70 g/ha [2, 9]: 0 to 29%; pest or weed control at 35 g/ha [2, 10]: 0 to 29%; pest or weed control at 70 g/ha [2, 10]: 0 to 29%; pest or weed control at 35 g/ha [2, 11]: 0 to 29%; pest or weed control at 70 g/ha [2, 11]: 0 to 29%; pest or weed control at 35 g/ha [2, 12]: 0 to 29%; pest or weed control at 70 g/ha [2, 12]: 0 to 29%; pest or weed control at 35 g/ha [2, 13]: 0 to 29%; pest or weed control at 70 g/ha [2, 13]: 0 to 29%; pest or weed control at 35 g/ha [2, 14]: 0 to 29%; pest or weed control at 70 g/ha [2, 14]: 0 to 29%"
Cn1ncc2ccc(-c3nc(C(=O)O)c(Cl)c(N)c3F)cc21 [Compound 4.08],–,–,–,–,–,–,–,–,–,–,–,–,182 to 184 °C,0 to 29%,60 to 74%,95 to 100%,0 to 29%,85 to 94%,"pest or weed control at 140 g/ha ([2]; Cyperus esculentus, yellow nutsedge (Cyperus esculentus), read-out: Visual Growth Reduction (%) 14 Days After Application CYPES): 0 to 29%; pest or weed control at 140 g/ha ([2]; Echinochloa crus-galli, barnyardgrass (Echinochloa crus-galli), read-out: Visual Growth Reduction (%) 14 Days After Application ECHCG): 0 to 29%; pest or weed control at 140 g/ha ([2]; Oryza sativa, rice (Oryza sativa), read-out: Visual Growth Reduction (%) 14 Days After Application ORYSA): 0 to 29%; pest or weed control at 140 g/ha ([2]; Setaria faberi, giant foxtail (Setaria faberi), read-out: Visual Growth Reduction (%) 14 Days After Application SETFA): 0 to 29%; pest or weed control at 140 g/ha ([2]; Triticum aestivum, wheat, spring (Triticum aestivum), read-out: Visual Growth Reduction (%) 14 Days After Application TRZAS): 0 to 29%; pest or weed control at 140 g/ha ([2]; Zea mays, maize, corn (Zea mays), read-out: Visual Growth Reduction (%) 14 Days After Application ZEAMX): 0 to 29%"
COC(=O)c1nc(-c2ccc(Cl)c3cc[nH]c23)cc(N)c1Cl [Compound 1.49],85 to 94%,85 to 94%,0 to 29%,30 to 44%,0 to 29%,0 to 29%,85 to 94%,85 to 94%,0 to 29%,0 to 29%,0 to 29%,0 to 29%,186 to 188 °C,85 to 94%,0 to 29%,95 to 100%,0 to 29%,45 to 59%,"pest or weed control at 140 g/ha [1, 4]: 0 to 29%"
